The text below walks through data of US8883782B2, “Spiro-tetracyclic ring compounds as beta-secretase modulators and methods of use” (Amgen Inc., priority 2010, dated 2014).

Assay [1] relates to Aβ40 in conditioned medium of cells stably expressing Amyloid Precursor Protein (APP). Nature of the assay: In vitro BACE cell-based assay (Aβ40 in conditioned medium, sandwich ELISA). As to conditions: read-out: HEK cell assay. In a few lines: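 Step two: 10-point compound titration added, starting 100 μM or 10 μM, 0.1% DMSO. Step three: medium Aβ40 measured by ELISA, capture 3 h and detection 2 h at 4° C, TRF read.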
A general note: ELISA stands for enzyme-linked immunosorbent assay.

Assay [2] has as its system Abeta 40 in cerebrospinal fluid (CSF) and brain. Nature of the assay: In vivo inhibition of beta-secretase (Abeta 40 reduction in CSF and brain). To be noted: rat, after 4 hrs; for inhibition in vivo at 3 mg/kg: Abeta 40, 3 mpk; for inhibition in vivo at 10 mg/kg: Abeta 40, 10 mg/kg (10 mpk). An excerpt: In Vivo Inhibition of Beta-Secretase
Several animal models, including mouse, rat, dog, and monkey, may be used to screen for inhibition of beta-secretase activity in vivo following administration of a test compound sample. Animals used in this invention can be wild type, transgenic, or gene knockout animals. […] A separate group of animals receive 2% hydroxypropyl methylcellulose, 1% Tween80 alone, containing no test compound, and serve as a vehicle-control group. At the end of the test period, animals are sacrificed and brain tissues, plasma or cerebrospinal fluid are collected. […] Homogenates are centrifuged at 355,000 g, 4° C. for 30 minutes. CSF or brain supernatants are then analyzed for the presence of A-beta peptide by specific sandwich ELISA assays based on ECL (Electrochemiluminescence) technology. For example, rat Abeta40 is measured using biotinylated-4G8 (Signet) as a capture antibody and Fab40 (an in-house antibody specific to the C-terminal of Abeta40) as a detection antibody.
Actual vehicles used: Oral: 2% HPMC, 1% Tween80, pH 2.2

Assay [3] deals with Beta Secretase enzyme (BACE) (Homo sapiens, UniProt P56817). In words: In vitro enzymatic BACE FRET (fluorescence resonance energy transfer) assay. Type of assay: biochemical. To be noted: average IC50, enzyme assay; read-out: BACE 1 FRET assay. Put shortly:
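A peptide bearing a fluorophore and quencher across the cleavage site serves as substrate at 50 nM. Reactions proceed one hour in acidic acetate buffer (0.05 M, pH 4.2) containing 10% DMSO final and 100 uM genapol, then are terminated with Tris and read fluorimetrically.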

Setting [4] is: Homo sapiens, HEK293, average IC50.
The mark [5] stands for this setting: CSF, read-out: CSF A-beta reduction % at 3 mpk.
Where [6] appears, read: brain, read-out: Brain A-beta reduction % at 3 mpk.
The mark [7] stands for this setting: CSF, read-out: CSF A-beta reduction % at 10 mg/kg.
[8] abbreviates: brain, read-out: Brain A-beta reduction % at 10 mg/kg.
Setting [9] is: Homo sapiens, HEK293, average IC50, HEK cells.

Like-named read-outs stand apart in the source and are kept apart here.

Sequence of Beta Secretase enzyme (BACE) (P56817 46-501, species assumed): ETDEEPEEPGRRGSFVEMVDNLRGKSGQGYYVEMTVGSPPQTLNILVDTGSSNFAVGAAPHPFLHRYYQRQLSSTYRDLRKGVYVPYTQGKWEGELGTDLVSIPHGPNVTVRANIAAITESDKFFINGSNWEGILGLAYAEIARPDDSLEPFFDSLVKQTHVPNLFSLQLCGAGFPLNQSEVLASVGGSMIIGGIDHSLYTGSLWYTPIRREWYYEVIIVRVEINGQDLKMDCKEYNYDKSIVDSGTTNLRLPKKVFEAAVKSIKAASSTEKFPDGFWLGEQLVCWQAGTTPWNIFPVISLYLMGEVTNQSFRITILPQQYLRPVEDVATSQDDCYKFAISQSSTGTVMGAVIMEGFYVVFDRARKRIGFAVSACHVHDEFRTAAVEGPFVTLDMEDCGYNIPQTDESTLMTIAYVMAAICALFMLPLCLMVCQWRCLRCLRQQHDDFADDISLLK

Regarding `CC1(C)C=C(c2cc3c(c(F)n2)Oc2ccc(-c4cccnc4F)cc2[C@@]32CSC(N)=N2)CCO1` [Example 1033, (S)-3-(6,6-dimethyl-3,6-dihydro-2H-pyran-4-yl)-1-fluoro-7-(2-fluoropyridin-3-yl)-5′H-spiro[chromeno[2,3-c]pyridine-5,4′-thiazol]-2′-amine], the IC50 came out at 563 nM in assay [1] (setting [4]) and 108 nM in assay [3]. The inhibition in vivo at 3 mg/kg in assay [2] (setting [5]) was 60%; in assay [2] (setting [6]), 52%.

With `NC1=N[C@@]2(CS1)c1cc(-c3cccnc3F)ccc1Oc1c(F)cc(N3CCC(F)(F)CC3)cc12` [Example 1076, (S)-2′-(4,4-difluoropiperidin-1-yl)-4′-fluoro-7′-(2-fluoropyridin-3-yl)-5H-spiro[thiazole-4,9′-xanthen]-2-amine], the IC50 in assay [1] (setting [4]) was found to be 14 nM; in assay [3], 0.4 nM. Moreover, the inhibition in vivo at 10 mg/kg in assay [2] (setting [7]) was determined as 63%; in assay [2] (setting [8]) it was 33%.

`CC1(C#Cc2cc3c(nc2F)Oc2ccc(-c4cccnc4F)cc2[C@@]32COC(N)=N2)COC1` [Example 901, (5S)-2-fluoro-7-(2-fluoro-3-pyridinyl)-3-((3-methyl-3-oxetanyl)ethynyl)spiro[chromeno[2,3-b]pyridine-5,4′-[1,3]oxazol]-2′-amine]: the IC50 is 11 nM in assay [1] (average IC50, HEK cells) and 0.5 nM in assay [3]. Moreover, the results for the inhibition in vivo at 10 mg/kg in assay [2] (setting [7]) and in assay [2] (setting [8]) were 56% and 44%, respectively.

Consider `Cc1ccc(-c2cc(F)c3c(c2)[C@]2(COC(N)=N2)c2cc(OCC(C)(C)C#N)ccc2O3)cn1` [Example 443, (S)-3-(2-amino-4′-fluoro-2′-(6-methylpyridin-3-yl)-5H-spiro[oxazole-4,9′-xanthene]-7′-yloxy)-2,2-dimethylpropanenitrile], for which the IC50 in assay [1] (setting [9]) is 11.6 nM; in assay [3], 5 nM. Further, the values for the inhibition in vivo at 10 mg/kg in assay [2] (setting [7]) and in assay [2] (setting [8]) were 35% and 7%, respectively.

In the case of `NC1=N[C@@]2(CO1)c1cc(-c3cccnc3)ccc1Oc1c2cc(N2CCC(F)(F)C2)nc1F` [Example 916, (S)-3-(3,3-difluoropyrrolidin-1-yl)-1-fluoro-7-(pyridin-3-yl)-5′-H-spiro[chromeno[2,3-c]pyridine-5,4′-oxazol]-2′-amine], the IC50 came to 5 nM in assay [1] (setting [9]) and 0.4 nM in assay [3]. The inhibition in vivo at 10 mg/kg in assay [2] (setting [7]) worked out at 61%; in assay [2] (setting [8]), 44%.

In the case of `Cn1cc(-c2cc(F)c3c(c2)[C@]2(COC(N)=N2)c2cc(-c4ccc(F)nc4)ccc2O3)cn1` [Example 262, (S)-4′-fluoro-7′-(6-fluoropyridin-3-yl)-2′-(1-methyl-1H-pyrazol-4-yl)-5H-spiro[oxazole-4,9′-xanthen]-2-amine], the IC50 in assay [1] (setting [4]) came to 12.6 nM; in assay [3], 3.3 nM. The results for the inhibition in vivo at 10 mg/kg in assay [2] (setting [7]) and in assay [2] (setting [8]) were 36% and 11%, respectively.

Regarding `NC1=N[C@@]2(CS1)c1cc(-c3cccnc3F)ccc1Oc1c(F)cc(C3=CCCOC3)cc12` [Example 802, (S)-2′-(5,6-dihydro-2H-pyran-3-yl)-4′-fluoro-7′-(2-fluoropyridin-3-yl)-5H-spiro[thiazole-4,9′-xanthen]-2-amine], the figures for the IC50 in assay [1] (setting [4]) and in assay [3] were 12 nM and 0.2 nM, respectively. In addition, the inhibition in vivo at 10 mg/kg came to 69% in assay [2] (setting [7]) and 57% in assay [2] (setting [8]).

As for `NC1=N[C@@]2(CS1)c1cc(-c3cccnc3F)ccc1Oc1c2cc(C2=CCOCC2)nc1F` [Example 1001, (S)-3-(3,6-dihydro-2H-pyran-4-yl)-1-fluoro-7-(2-fluoropyridin-3-yl)-5′H-spiro[chromeno[2,3-c]pyridine-5,4′-thiazol]-2′-amine], the values for the IC50 in assay [1] (setting [4]) and in assay [3] were 4 nM and 0.3 nM, respectively. The inhibition in vivo at 3 mg/kg in assay [2] (setting [5]) stood at 73%; in assay [2] (setting [6]), 62%.

Take `NC1=N[C@@]2(CS1)c1cc(-c3cccnc3F)ccc1Oc1c2cc(-c2ccnc(F)c2)nc1F` (single isomer, unassigned) [Example 996]: the IC50 in assay [1] (setting [4]) worked out at 13 nM; in assay [3], 0.2 nM. For the same compound, the inhibition in vivo at 10 mg/kg in assay [2] (setting [7]) was determined as 55%; in assay [2] (setting [8]), 43%.

Turning to `NC1=N[C@@]2(CS1)c1cc(-c3cccnc3F)ccc1Oc1c2cc(C2CCOCC2)nc1F` [Example 1029, (S)-1-fluoro-7-(2-fluoropyridin-3-yl)-3-(tetrahydro-2H-pyran-4-yl)-5′H-spiro[chromeno[2,3-c]pyridine-5,4′-thiazol]-2′-amine], the values for the IC50 in assay [1] (setting [4]) and in assay [3] were 7 nM and 0.4 nM, respectively. Besides, the inhibition in vivo at 10 mg/kg came out at 83% in assay [2] (setting [7]) and 73% in assay [2] (setting [8]).

For `NC1=N[C@@]2(CS1)c1cc(-c3cccnc3F)ccc1Oc1cnc(N3CCOCC3)cc12` [Example 999, (S)-7-(2-fluoropyridin-3-yl)-3-morpholino-5′H-spiro[chromeno[2,3-c]pyridine-5,4′-thiazol]-2′-amine], the values for the IC50 in assay [1] (setting [4]) and in assay [3] were 14 nM and 0.5 nM, respectively. Besides, the “CSF A-beta reduction % at 5 mpk” value in assay [2] (CSF, Abeta 40, 5 mpk) stood at 58% at 5 mpk. For the same compound, the “Brain A-beta reduction % at 5 mpk” value in assay [2] (brain, Abeta 40, 5 mpk) was 40% at 5 mpk.

On to `CC(F)(F)COc1cc(F)c2c(c1)[C@]1(CSC(N)=N1)c1cc(-c3cccnc3F)ccc1O2` [Example 724, (4S)-2′-(2,2-difluoropropoxy)-4′-fluoro-7′-(2-fluoro-3-pyridinyl)spiro[1,3-thiazole-4,9′-xanthen]-2-amine], for which the values for the IC50 in assay [1] (setting [4]) and in assay [3] were 22 nM and 1 nM, respectively. Moreover, the inhibition in vivo at 10 mg/kg in assay [2] (setting [7]) was found to be 42%; in assay [2] (setting [8]) it was 27%.

With `NC1=N[C@@]2(CO1)c1cc(-c3cccnc3F)c(F)cc1Oc1c(F)cc(N3CCOCC3)cc12` (single isomer, unassigned) [Example 869], the figures for the IC50 in assay [1] (setting [9]) and in assay [3] were 10 nM and 0.5 nM, respectively. The inhibition in vivo at 10 mg/kg came out at 61% in assay [2] (setting [7]) and 44% in assay [2] (setting [8]).

For `N#Cc1cccc(-c2ccc3c(c2)[C@@]2(COC(N)=N2)c2cc(N4CCOCC4)nc(F)c2O3)c1` [Example 894, 3-((5S)-2′-amino-1-fluoro-3-(4-morpholinyl)spiro[chromeno[2,3-c]pyridine-5,4′-[1,3]oxazol]-7-yl)benzonitrile], the IC50 stood at 10 nM in assay [1] (setting [9]) and 0.3 nM in assay [3]. The results for the inhibition in vivo at 10 mg/kg in assay [2] (setting [7]) and in assay [2] (setting [8]) were 75% and 69%, respectively.

Take `NC1=N[C@@]2(CO1)c1cc(-c3cccnc3)ccc1Oc1cnc(N3CCC(F)(F)C3)cc12` [Example 138, (S)-3-(3,3-difluoropyrrolidin-1-yl)-7-(pyridin-3-yl)-5′H-spiro[chromeno[2,3-c]pyridine-5,4′-oxazol]-2′-amine]: the IC50 was found to be 5.2 nM in assay [1] (setting [9]) and 1.1 nM in assay [3]. The inhibition in vivo at 10 mg/kg in assay [2] (setting [7]) was 67%; in assay [2] (setting [8]), 48%.

With `NC1=N[C@@]2(CO1)c1cc(-c3cnccn3)ccc1Oc1c(F)cc(C3=CCOCC3)cc12` [Example 452, (S)-2′-(3,6-dihydro-2H-pyran-4-yl)-4′-fluoro-7′-(pyrazin-2-yl)-5H-spiro[oxazole-4,9′-xanthen]-2-amine], the IC50 in assay [1] (setting [9]) is 11.5 nM; in assay [3], 2 nM. The inhibition in vivo at 10 mg/kg amounted to 56% in assay [2] (setting [7]) and 35% in assay [2] (setting [8]).

On to `NC1=N[C@@]2(CS1)c1cc(-c3cccnc3F)ccc1Oc1c(F)cc(N3C[C@@H]4C[C@H]3CO4)cc12` [Example 1084, (S)-2′-((1S,4S)-2-oxa-5-azabicyclo[2.2.1]heptan-5-yl)-4′-fluoro-7′-(2-fluoropyridin-3-yl)-5H-spiro[thiazole-4,9′-xanthen]-2-amine], for which the IC50 in assay [1] (setting [4]) amounted to 102 nM; in assay [3] it was 7.5 nM. For the same compound, the results for the inhibition in vivo at 10 mg/kg in assay [2] (setting [7]) and in assay [2] (setting [8]) were 67% and 50%, respectively.

With `NC1=N[C@@]2(CO1)c1cc(-c3cccnc3F)ccc1Oc1c(F)cc(-c3ncccn3)cc12` [Example 128, (S)-4′-fluoro-7′-(2-fluoropyridin-3-yl)-2′-(pyrimidin-2-yl)-5H-spiro[oxazole-4,9′-xanthen]-2-amine], the IC50 in assay [1] (setting [4]) was 8.2 nM; in assay [3], 1.1 nM. Besides, the figures for the inhibition in vivo at 10 mg/kg in assay [2] (setting [7]) and in assay [2] (setting [8]) were 75% and 57%, respectively.

Consider `NC1=N[C@@]2(CS1)c1cc(-c3cccnc3F)ccc1Oc1ncc(C3=CCCOC3)cc12` [Example 672, (5S)-3-(5,6-dihydro-2H-pyran-3-yl)-7-(2-fluoro-3-pyridinyl)spiro[chromeno[2,3-b]pyridine-5,4′-[1,3]thiazol]-2′-amine], for which the IC50 came out at 10 nM in assay [1] (setting [9]) and 0.7 nM in assay [3]. The figures for the inhibition in vivo at 10 mg/kg in assay [2] (setting [7]) and in assay [2] (setting [8]) were 64% and 47%, respectively.
